From ChEMBL document CHEMBL1140521, “Enhanced efficacy of 7-hydroxy-3-methoxycadalene via glycosylation in in vivo xenograft study” (Bioorg Med Chem Lett, 2007)
pIC50: −log10 of the molar value.

What was measured:
HeLa = assay: Cytotoxicity against human HeLa cells after 24 hrs by WST8 assay; format: functional, cell-based
A549 [1] = assay: Cytotoxicity against human A549 cells after 24 hrs by WST8 assay; format: functional, cell-based; conditions: A549, 24 h
A549 [2] = assay: Antitumor activity against human A549 cells xenografted athymic BALB/c mouse assessed as reduction in tumor volume at 100 mg/kg/day, po for 28 days; format: functional; set-up: scale not given: the % may be the effect or the level left

SMILES | pIC50 (HeLa) | pIC50 (A549 [1]) | Activity (A549 [2]) [%]
COc1cc(C)c2cc(O)c(C)cc2c1C(C)C [CADALENE] | 4.55 | 4.46 | –
COc1cc(C)c2cc(O[C@@H]3O[C@H](CO)[C@@H](O)[C@H](O)[C@H]3O)c(C)cc2c1C(C)C | 3.64 | 3.71 | 50
COc1cc(C)c2cc(OCCO[C@H]3O[C@H](CO)[C@@H](O)[C@H](O)[C@H]3O)c(C)cc2c1C(C)C | 3.79 | 3.89 | 25
